The values below come from patent publication US12570661B2, “Isoform-specific aldehyde dehydrogenase inhibitors” (The Board of Trustees of the Leland Stanford Junior …, priority 2020, dated 2026).

Molecules are shown by their SMILES. “Also recorded” adds a separate entry of the source. Like-named read-outs stand apart in the source and are kept apart here.

The target in one data set is T1, ALDH1B1 (Homo sapiens, UniProt P30837).
T1 sequence (P30837 18-517): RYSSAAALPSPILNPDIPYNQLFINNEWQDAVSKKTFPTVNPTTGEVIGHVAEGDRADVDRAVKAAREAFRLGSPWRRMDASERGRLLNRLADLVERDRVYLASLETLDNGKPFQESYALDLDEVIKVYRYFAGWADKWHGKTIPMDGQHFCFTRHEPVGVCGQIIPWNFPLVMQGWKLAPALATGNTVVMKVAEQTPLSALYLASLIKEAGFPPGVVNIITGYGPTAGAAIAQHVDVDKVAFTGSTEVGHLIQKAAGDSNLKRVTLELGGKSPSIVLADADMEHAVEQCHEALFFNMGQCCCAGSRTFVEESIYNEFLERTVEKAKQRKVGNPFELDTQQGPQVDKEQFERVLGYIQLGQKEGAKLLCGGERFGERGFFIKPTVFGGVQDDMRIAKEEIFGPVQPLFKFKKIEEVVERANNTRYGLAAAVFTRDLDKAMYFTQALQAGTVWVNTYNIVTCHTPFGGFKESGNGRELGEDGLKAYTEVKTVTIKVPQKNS
Nature of the data set: ALDH1B1 enzyme kinetics assay (NADH fluorescence, acetaldehyde substrate). Also on record: made in house; host or cells: E. coli BL21 (optionally co-expressed with GroEL/GroES). Conditions: for ALDH1B1 inhibition / isoform selectivity (in words): enzyme kinetics assays against ALDH isoforms. It counts as biochemical. How it is done:
Cloning, expression, and purification of human recombinant ALDH1A1, ALDH1A3, ALDH2, ALDH3A1, ALDH3A2, ALDH4A1, ALDH5A1 and ALDH7A1 isozymes were conducted as described previously (Chen, C. H. et al. (2015) Proc. Natl. Acad. Sci. U.S.A. 112, 3074-3079). Human ALDH1A2 (Origene, SC109995) and ALDH1B1 (T. Hurley, Indiana University) plasmids were cloned into the pET-15b expression vector (Novagen, 69661-3) containing an N-terminal hexahistidine tag. The mitochondria-targeting sequence of ALDH1B1 was also removed. For protein expression without chaperones, the pET-15b based plasmids were transformed into competent BL21 E. coli cells, which were subsequently grown in 1 L of Luria-Bertani medium containing 100 μg/mL ampicillin at 37° C. Once the OD600 value reached 0.6, the culture was transferred to 16° C. and 0.5 mM isopropyl β-d-1-thiogalactopyranoside was introduced to induce protein expression overnight. The bacteria were then pelleted by centrifugation (3000×g, 4° C. for 30 rain) and harvested. 40 mL BugBuster Master Mix buffer (MilliporeSigrna) containing a protease inhibitor cocktail (cOmplete; Roche) was added, and the cells were lysed by mechanically rolling the suspension at room temperature for 25 min. The lysate was centrifuged (16000×g, 4° C. for 30 min), and the soluble fraction was collected and mixed with 2 mL of Ni-NTA Superflow resin (Qiagen). After the mixture was avowed to rock at 4° C. for 1 h, it was used to create a 10-mL gravity column, which was sequentially treated with 40 mL of wash buffer 1 (20 mM sodium phosphate, 500 mM NaCl, 1 mM DTT, 20 mM imidazole, 5% glycerol, pH 7.4) and 25 mL of wash buffer 2 (20 mM sodium phosphate, 500 mM NaCl, 1 mM DTT, 40 mM imidazole, 5% glycerol, pH 7.4). The hexahistidine-tagged protein was then recovered by treated the column with 5 mL elution buffer (20 mM sodium phosphate, 500 mM NaCl, 1 mM DTT, 400 mM imidazole, 5% glycerol, pH 7.4) and collecting 500-μL fractions. The protein concentration for each fraction was measured (500 μL elution volume was collected as one fraction and was immediately mixed with 500 μL glycerol. The protein concentration for each fraction was measured (600 nm Protein Assay Reagent; Thermo Fisher Scientific), and protein-containing fractions were diluted with an equal volume of glycerol and stored at −80° C. Samples from each step were also collected for SDS-PAGE gel analysis. For ALDH1B1 protein co-expression with chaperones, pET-15b-ALDH1B1 and GroEL/GroES (Addgene, plasmid pBB541) plasmids were co-transformed into competent BL21 E. coli cells, which were subsequently grown in 1 L of Luria-Bertani medium containing 100 μg/mL ampicillin and 50 μg/mL spectinomycin at 37° C. The hexahistidine-tagged ALDH1B1 protein was then expressed and purified as described above.
To evaluate compound activities against ALDH isoforms, reaction mixtures consisting of enzyme assay buffer (100 mM sodium phosphate, 1 mM MgCl2, pH 8.0) and 0.1% DMSO, 1 mM β-mercaptoethanol, 1 mM NAD^+, and the bacterially expressed protein were prepared in white opaque 96-well assay plates (100 μL/well, flat-bottom and non-treated; Corning Costar). 5 μg/mL ALDH enzyme was used for single-dose (1, 10, 50 μM) compound test, and 1 μg/mL ALDH enzyme was used for IC50s determination. Acetaldehyde was then added to each well to achieve an initial substrate concentration of 1 mM, and the resulting enzymatic activity was measured based on NADH fluorescence. The fluorescence signal was read over the course of 10 min on a SpectraMax M2e microplate reader (340-nm excitation and 460-nm emission; Molecular Devices) operated by SoftMax Pro software. Compound activities were normalized to a DMSO control, and dose-response inhibition curves were fitted with four-parameter non-linear regression using Prism software. […]

Data set [1] is described as follows: HEK-293T cytotoxicity (cell viability) assay. It counts as cell-based. Conditions: human, HEK-293T cells; adherent HEK-293T, 4-5 days, CellTiter-Glo; read-out: HEK293T GI50. How it is done: HEK-293T cells were seeded into a 96-well plate at a density of 5×10^3 cells/well and treated with varying concentrations of selected compounds or an equivalent amount of DMSO vehicle. The cells were cultured for 4-5 days without a media change, and after the DMSO-treated cells approached 100% confluence, the cell viabilities were measured using a CellTiter-Glo 3D Cell Viability Assay kit (Promega) and a Veritas microplate luminometer (Turner BioSystems) as described above.
(In general: ATP-based viability assays read luminescence as a measure of living cells.)

Where [2] appears, read: 1 μg/mL enzyme, 1 mM acetaldehyde, 1 mM NAD+, read-out: ALDH1B1(in vitro) IC50.

By GI50 is commonly meant the concentration that inhibits growth by half. By IC50 is commonly meant the concentration that inhibits the measured activity by half.

With `COc1ccccc1-n1cc(-c2ccccn2)[n+]2c1CCCCC2` [Compound 63], the “ALDH1B1 inhibition / isoform selectivity (in words)” value on ALDH1B1 is “inactive against ALDH1B1”.
Take `COc1ccccc1C1=CN(c2ccc(-c3ccccc3)cc2)C2=NCCCCN12` [HPI-273]: in data set [1], the GI50 turned out to be 2800 nM. The IC50 at ALDH1B1 (setting [2]) is 47 nM.
With `COc1ccccc1-n1cc(-c2ccc(-c3ccccc3)cc2)[n+]2c1CCCCC2` [Imidazolium 2], in data set [1], the GI50 came out at 230 nM. Also, the IC50 at ALDH1B1 (setting [2]) came out at 42 nM; on ALDH1B1 (FIG. 2, panel B, read-out: ALDH1B1 IC50 (dose-response experiments, text)), 57 nM. Besides, on ALDH1B1 (dose-response, ALDH1A1, ALDH1A3, ALDH1B1), the “activity against other ALDH1 enzymes relative to ALDH1B1” value is reported as “over an order of magnitude weaker activity against other ALDH1 enzymes”. In addition, the “ALDH1B1 inhibition / isoform selectivity (in words)” value at ALDH1B1 is given as “most potent”. In addition, the “mode of ALDH1B1 inhibition with respect to NAD+” value at ALDH1B1 (varying NAD+, Lineweaver-Burk) is on record as “uncompetitive”. Also, at ALDH1B1 (varying acetaldehyde, Lineweaver-Burk), the “mode of ALDH1B1 inhibition with respect to acetaldehyde” value is reported as “non-competitive”.
Consider `COc1ccccc1-c1ccc(-c2cn(-c3ccccc3OC)c3[n+]2CCCCC3)cc1.[Br-]` [Imidazolium 8], for which the GI50 in data set [1] worked out at 160 nM. For the same molecule, the half-inhibitory concentration (IC50) at ALDH1B1 (setting [2]) stood at 47 nM. The “potency against ALDH1B1 relative to imidazolium 2 (and 8)” value at ALDH1B1 (dose-response, FIG. 15 panel d) is on record as “comparable potencies”. Besides, the “ALDH1B1 inhibition / isoform selectivity (in words)” value on ALDH1B1 is “ALDH1B1-specific inhibitors; also recorded: enhanced specificity for ALDH1B1 in comparison to imidazolium 2”.
Turning to `COc1ccccc1C1=CN(c2ccc(-c3ccccc3)cc2)C2=NCCCN12` [STL5-T-0002], in data set [1], the GI50 turned out to be 8900 nM. Further, the IC50 on ALDH1B1 (setting [2]) stood at 120 nM.
